{"source": "ChEMBL document CHEMBL1144691", "about": "“Antiproliferative cassane diterpenoids of Cordyla madagascariensis ssp. madagascariensis from the Madagascar rainforest” (J Nat Prod, 2008)", "test_system": "A2780", "assay": "Antiproliferative activity against human A2780 cells", "format": "functional, cell-based", "data": [{"compound": "CC(=O)OC[C@@]1(CO)CCC[C@]2(C)[C@H]3Cc4occc4[C@H](C)[C@@H]3C[C@@H](OC(C)=O)[C@@H]12", "note": "[CORDYLANE A]", "values": [{"measurement": "IC50", "result": 10, "unit": "µM"}]}, {"compound": "CC(=O)OC[C@]1(CO)CCC[C@]2(C)[C@H]3Cc4occc4[C@H](C)[C@@H]3C[C@@H](OC(C)=O)[C@@H]12", "note": "[CORDYLANE B]", "values": [{"measurement": "IC50", "result": 36, "unit": "µM"}]}, {"compound": "C[C@H]1c2ccoc2C[C@H]2[C@H]1CC[C@H]1[C@@](CO)(C(=O)O)CCC[C@]21C", "note": "[CORDYLANE C]", "values": [{"measurement": "IC50", "result": "> 60", "unit": "µM"}]}, {"compound": "C=C1c2ccoc2C[C@H]2[C@H]1CC[C@H]1[C@@](CO)(C(=O)O)CCC[C@]21C", "note": "[CORDYLANE D]", "values": [{"measurement": "IC50", "result": "> 60", "unit": "µM"}]}]}
